Reference: patent publication US20050215551A1, “1-[2H-1-benzopyran-2-one-8-yl]- piperazine derivatives for the treatment of movement disorders” (SOLVAY PHARMACEUTICALS B.V., priority 2004, published 2005)
Like-named read-outs stand apart in the source and are kept apart here.

What was measured:
DBA/2 mice = experiment: Anticonvulsant activity: audiogenic seizures in DBA/2 mice; format: in vivo; details: for ED50: Mus musculus; for behavioural changes: all dosages tested
Source text: DBA/2 mice weighing 6-12 g (22-26 days old; either sex, Harlan Italy Correzzana, Milano, Italy) are housed in groups of 8-10 under a 12-h light/dark cycle (lights on at 7:00 a.m.) with food and water available ad libitum. The experimental protocol is approved by University of Catanzaro Ethical Committee. All procedures are in compliance with the Nationals Institutes of Health Guide for Care and Use of Laboratory Animals (Publication No. 85-23, revised 1985) and European Communities Council Directive of 24 Nov. 1986 (86/609 EEC).
The experiments are performed according to the method previously described by De Sarro et al. (1984), Eur. J. Pharmacol., 104, 55-60. Compounds of the invention or vehicle (controls) are given intraperitoneally (i.p.) and orally (p.o.) as freshly sonicated solutions in methylcellulose 1%. For the […]; pretreatment time at 30 and 60 min., For oral treatment, all animals are pretreated either at 30 or 60 min using the compounds of the invention at doses of 0.1, 0.3, 3, 6 and 10 mg/kg p.o. At least 10 mice per dose are used. After pretreatment time, each mouse is placed under a hemispheric perspex dome (58 cm in diameter) and 1 min is allowed for habituation and assessment of locomotor activity. Animals are challenged with a 12-16 kHz sinusoidal tone at 109 dB. Seizure response is assessed by two independent observers. The sound evoked behaviour is coded using the following scale: 0=no response, 1=wild running, 2=clonus, 3=tonic flexor and/or extensor; 4=respiratory arrest, on the basis of the concordant opinion of the observers. […] The maximum response is recorded for each animal. Rectal temperature is recorded immediately prior to auditory testing using an Elektrolaboratoriet thermometer type T.E.3. Behavioral changes are observed during the period between drug administration and auditory testing. In these experiments separate vehicle-treated and drug-treated groups are used at each pretreatment time (15 min-60 min). Percentage of mice showing wild running, clonic or tonic phase and the duration of anticonvulsant activity are compared to control group and statistically analyzed.
Statistical comparison between groups of control and drug-treated DBA/2 mice is made using Fisher's exact probability test (incidence of the seizure phases). The percentage incidence of each phase of the audiogenic seizure is determined for each drug. These values are plotted against the corresponding doses by a computer construction of the dose-effect curves for calculation of ED50 (with 95% confidence limits). The ED50 values for each compound are calculated using a computer program of the method of Litchfield and Wilcoxon (1949). At least 32 animals are used to calculate each ED50 value.
For systemic injections and oral administrations, all compounds are given intraperitoneally (0.1 ml/10 g of body weight of the mouse) as a freshly prepared solution in methylcellulose 1%. In order to avoid the light sensitivity, weighing and handling are carried out under sodium vapor lamps and the substances are protected from light during the experiments.

5-HT1A = 5-HT1A (Homo sapiens, UniProt P08908); experiment: Receptor binding 5-HT1A; details: radioligand [3H]-8-OH-DPAT, read-out: Ki(nM) Compound 1
Sequence of 5-HT1A (P08908 whole entry): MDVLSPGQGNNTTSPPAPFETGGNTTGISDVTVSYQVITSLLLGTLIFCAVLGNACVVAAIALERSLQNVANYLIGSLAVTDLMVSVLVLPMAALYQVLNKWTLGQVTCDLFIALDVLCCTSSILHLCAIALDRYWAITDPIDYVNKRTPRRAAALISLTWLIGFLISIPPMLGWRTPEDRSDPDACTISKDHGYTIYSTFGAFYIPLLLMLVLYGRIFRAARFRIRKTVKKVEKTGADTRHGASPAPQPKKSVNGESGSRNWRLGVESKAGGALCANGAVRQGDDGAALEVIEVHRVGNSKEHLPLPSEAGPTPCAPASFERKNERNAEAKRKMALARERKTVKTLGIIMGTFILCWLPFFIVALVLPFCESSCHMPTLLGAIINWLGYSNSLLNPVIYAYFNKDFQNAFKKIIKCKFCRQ

5-HT3 = 5-HT3 (Homo sapiens, UniProt P46098); experiment: Receptor binding 5-HT3; details: radioligand [3H]-BRL 43694, read-out: Ki(nM) Compound 1
Sequence of 5-HT3 (P46098 24-478): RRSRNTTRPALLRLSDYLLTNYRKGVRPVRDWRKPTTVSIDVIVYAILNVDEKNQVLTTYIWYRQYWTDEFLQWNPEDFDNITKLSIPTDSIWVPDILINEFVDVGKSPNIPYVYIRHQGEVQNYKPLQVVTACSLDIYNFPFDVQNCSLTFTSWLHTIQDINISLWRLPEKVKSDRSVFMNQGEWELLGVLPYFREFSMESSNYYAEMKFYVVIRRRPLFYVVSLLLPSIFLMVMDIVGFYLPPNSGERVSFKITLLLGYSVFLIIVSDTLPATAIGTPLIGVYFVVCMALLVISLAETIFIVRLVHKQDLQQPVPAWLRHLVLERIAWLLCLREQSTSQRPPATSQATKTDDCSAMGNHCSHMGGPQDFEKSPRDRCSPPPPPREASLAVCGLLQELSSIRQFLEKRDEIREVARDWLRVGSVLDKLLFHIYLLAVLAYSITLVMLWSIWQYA
Description: (§1) Receptor binding data were obtained by CEREP (128, rue Danton, 92500 Rueil-Malmaison, France) or at Solvay Pharmaceuticals B.V., using well documented standard procedures. Affinity for 5-HT1A receptors for instance, was determined by testing the ability of the compounds of the invention to displace [^3H]-2-(di-n-propylamino)-8-hydroxytetralin ([^3H]-8-OH-DPAT) from its specific binding sites in rat frontal cortex homogenates. This test is based on the method described by Gozlan et al. (Nature, 305, (1983), pages 140-142).
(§2) The binding data collected in the table below were either obtained by CEREP (128, rue Danton, 92500 Rueil-Malmaison, France) or at Solvay Pharmaceuticals B.V., using well documented standard procedures.

5-HT6 = 5-HT6 (Homo sapiens, UniProt P50406); experiment: Receptor binding 5-HT6; details: radioligand [3H]-LSD, read-out: Ki(nM) Compound 1
Description: as §1, §2

Dopamine-D5 = Dopamine-D5 (Homo sapiens, UniProt P21918); experiment: Receptor binding Dopamine-D5; details: radioligand [3H]-SCH 23390, read-out: Ki(nM) Compound 1
Description: as §1, §2

Muscarine-M2 = Muscarine-M2 (Homo sapiens, UniProt P08172); experiment: Receptor binding Muscarine-M2; details: radioligand [3H]-AFDX-384, read-out: Ki(nM) Compound 1
Description: as §1, §2

nicotine = nicotine (Rattus norvegicus, UniProt P09483+P12390); experiment: Receptor binding nicotine; details: radioligand [3H]-cytisine, read-out: Ki(nM) Compound 1
Description: as §1, §2

μ-opiate = μ-opiate (Rattus norvegicus, UniProt P33535); experiment: Receptor binding μ-opiate; details: radioligand [3H]-DAMGO, read-out: Ki(nM) Compound 1
Sequence of μ-opiate (P33535 whole entry): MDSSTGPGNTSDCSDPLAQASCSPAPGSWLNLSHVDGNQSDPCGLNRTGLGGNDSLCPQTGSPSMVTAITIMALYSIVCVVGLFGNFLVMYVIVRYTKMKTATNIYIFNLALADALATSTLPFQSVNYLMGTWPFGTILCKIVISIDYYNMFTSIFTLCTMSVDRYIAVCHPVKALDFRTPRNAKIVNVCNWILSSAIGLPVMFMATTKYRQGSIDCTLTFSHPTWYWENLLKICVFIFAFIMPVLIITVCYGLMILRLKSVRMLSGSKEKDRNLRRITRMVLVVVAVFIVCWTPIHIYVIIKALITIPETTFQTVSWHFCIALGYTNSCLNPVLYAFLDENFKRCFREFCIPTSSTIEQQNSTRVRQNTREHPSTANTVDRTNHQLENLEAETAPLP
Description: as §1, §2

Ca++-channel = Ca++-channel (Rattus norvegicus, UniProt Q02294); experiment: biochemical; format: binding
Sequence of Ca++-channel (Q02294 whole entry): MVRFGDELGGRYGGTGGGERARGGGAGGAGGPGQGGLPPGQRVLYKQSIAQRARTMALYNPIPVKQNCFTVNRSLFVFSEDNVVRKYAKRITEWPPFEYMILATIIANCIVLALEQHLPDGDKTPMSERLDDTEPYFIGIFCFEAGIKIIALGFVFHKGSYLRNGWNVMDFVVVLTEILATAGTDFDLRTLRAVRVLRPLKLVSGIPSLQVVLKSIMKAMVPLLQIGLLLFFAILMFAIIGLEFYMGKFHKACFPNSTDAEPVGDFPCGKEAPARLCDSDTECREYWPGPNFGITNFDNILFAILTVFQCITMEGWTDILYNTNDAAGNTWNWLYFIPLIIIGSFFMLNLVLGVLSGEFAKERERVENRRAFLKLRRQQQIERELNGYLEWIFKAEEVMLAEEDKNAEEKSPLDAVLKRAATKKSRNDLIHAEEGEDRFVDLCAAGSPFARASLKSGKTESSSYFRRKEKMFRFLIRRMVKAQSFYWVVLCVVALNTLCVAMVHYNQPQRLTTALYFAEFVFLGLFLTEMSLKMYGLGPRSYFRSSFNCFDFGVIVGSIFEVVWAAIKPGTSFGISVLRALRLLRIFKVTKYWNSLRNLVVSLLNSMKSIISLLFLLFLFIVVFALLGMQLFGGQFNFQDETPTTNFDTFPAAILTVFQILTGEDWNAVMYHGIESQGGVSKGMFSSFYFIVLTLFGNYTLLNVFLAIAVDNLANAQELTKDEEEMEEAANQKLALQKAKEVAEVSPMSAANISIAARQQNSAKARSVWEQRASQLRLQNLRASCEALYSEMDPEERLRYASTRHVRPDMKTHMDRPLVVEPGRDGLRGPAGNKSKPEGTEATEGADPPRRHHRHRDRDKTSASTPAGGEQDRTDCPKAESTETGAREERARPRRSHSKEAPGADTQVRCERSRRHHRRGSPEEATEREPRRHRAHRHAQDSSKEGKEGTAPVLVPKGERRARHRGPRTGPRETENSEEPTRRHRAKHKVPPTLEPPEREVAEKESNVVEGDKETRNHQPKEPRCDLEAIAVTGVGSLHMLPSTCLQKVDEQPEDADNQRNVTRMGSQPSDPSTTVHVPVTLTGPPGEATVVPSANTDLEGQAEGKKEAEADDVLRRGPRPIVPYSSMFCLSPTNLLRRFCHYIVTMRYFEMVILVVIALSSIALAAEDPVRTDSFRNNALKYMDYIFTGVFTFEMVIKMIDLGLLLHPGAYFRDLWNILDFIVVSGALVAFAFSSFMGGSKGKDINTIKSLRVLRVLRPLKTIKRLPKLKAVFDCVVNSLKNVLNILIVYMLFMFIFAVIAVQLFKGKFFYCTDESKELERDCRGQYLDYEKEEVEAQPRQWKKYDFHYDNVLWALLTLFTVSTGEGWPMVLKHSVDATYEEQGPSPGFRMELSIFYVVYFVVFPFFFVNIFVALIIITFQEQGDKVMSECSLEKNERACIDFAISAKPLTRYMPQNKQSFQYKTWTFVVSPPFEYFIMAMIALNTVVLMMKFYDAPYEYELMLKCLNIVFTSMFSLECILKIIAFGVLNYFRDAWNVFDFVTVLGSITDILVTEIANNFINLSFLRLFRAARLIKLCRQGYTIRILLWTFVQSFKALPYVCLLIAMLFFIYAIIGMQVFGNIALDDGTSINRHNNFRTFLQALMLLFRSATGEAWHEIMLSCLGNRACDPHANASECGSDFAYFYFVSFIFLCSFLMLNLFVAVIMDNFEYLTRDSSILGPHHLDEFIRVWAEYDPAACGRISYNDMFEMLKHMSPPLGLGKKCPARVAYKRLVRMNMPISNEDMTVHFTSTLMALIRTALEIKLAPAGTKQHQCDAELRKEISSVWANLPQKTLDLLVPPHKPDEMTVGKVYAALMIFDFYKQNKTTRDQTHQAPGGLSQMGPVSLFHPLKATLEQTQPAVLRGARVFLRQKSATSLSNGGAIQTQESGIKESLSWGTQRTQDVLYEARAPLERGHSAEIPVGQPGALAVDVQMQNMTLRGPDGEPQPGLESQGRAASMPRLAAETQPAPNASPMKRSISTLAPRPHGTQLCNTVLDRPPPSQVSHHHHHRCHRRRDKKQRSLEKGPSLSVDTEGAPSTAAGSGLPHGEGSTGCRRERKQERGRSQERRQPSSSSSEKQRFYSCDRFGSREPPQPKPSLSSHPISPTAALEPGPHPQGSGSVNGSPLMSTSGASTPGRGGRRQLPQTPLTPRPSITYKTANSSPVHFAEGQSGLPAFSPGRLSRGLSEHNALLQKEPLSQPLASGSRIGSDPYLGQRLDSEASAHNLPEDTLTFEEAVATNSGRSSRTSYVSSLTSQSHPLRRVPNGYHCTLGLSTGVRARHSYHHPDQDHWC
Sequence of Ca++-channel (P54287 whole entry partner): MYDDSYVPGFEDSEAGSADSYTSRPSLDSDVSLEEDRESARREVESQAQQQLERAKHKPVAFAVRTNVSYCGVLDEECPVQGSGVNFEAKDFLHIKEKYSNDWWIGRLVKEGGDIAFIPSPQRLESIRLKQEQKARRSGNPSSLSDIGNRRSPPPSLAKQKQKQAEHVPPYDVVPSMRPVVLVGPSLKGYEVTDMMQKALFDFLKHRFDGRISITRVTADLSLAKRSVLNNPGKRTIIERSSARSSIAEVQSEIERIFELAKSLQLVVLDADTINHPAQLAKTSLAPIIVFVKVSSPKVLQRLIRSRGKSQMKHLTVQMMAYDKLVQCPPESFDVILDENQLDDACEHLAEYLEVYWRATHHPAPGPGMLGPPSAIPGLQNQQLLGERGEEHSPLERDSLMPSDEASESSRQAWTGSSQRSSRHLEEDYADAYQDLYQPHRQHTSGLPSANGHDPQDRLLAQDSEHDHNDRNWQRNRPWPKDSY

Adenosine-A2A = Adenosine-A2A (Homo sapiens, UniProt P29274); experiment: Receptor binding Adenosine-A2A; details: radioligand [3H]-CGS 21680, read-out: Ki(nM) Compound 1
Description: as §1, §2

CCKB = CCKB (Homo sapiens, UniProt P32239); experiment: Receptor binding CCKB; details: radioligand [3H]-CCK8, read-out: Ki(nM) Compound 1
Sequence of CCKB (P32239 whole entry): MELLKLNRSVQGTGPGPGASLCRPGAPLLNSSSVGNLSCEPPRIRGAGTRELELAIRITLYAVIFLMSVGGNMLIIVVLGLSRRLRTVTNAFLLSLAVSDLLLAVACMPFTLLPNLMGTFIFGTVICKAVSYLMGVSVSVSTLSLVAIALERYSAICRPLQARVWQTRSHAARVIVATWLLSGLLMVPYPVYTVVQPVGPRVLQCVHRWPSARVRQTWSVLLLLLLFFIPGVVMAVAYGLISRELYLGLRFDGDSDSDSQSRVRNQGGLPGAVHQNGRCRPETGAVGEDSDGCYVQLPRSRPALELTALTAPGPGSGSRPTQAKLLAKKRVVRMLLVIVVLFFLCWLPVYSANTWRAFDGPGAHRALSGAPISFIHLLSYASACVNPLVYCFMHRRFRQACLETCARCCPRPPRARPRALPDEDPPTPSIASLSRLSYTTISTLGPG
Description: as §1, §2

Galanin-GAL1 = Galanin-GAL1 (Homo sapiens, UniProt P47211); experiment: Receptor binding Galanin-GAL1; details: radioligand [125I]-galanin, read-out: Ki(nM) Compound 1
Sequence of Galanin-GAL1 (P47211 whole entry): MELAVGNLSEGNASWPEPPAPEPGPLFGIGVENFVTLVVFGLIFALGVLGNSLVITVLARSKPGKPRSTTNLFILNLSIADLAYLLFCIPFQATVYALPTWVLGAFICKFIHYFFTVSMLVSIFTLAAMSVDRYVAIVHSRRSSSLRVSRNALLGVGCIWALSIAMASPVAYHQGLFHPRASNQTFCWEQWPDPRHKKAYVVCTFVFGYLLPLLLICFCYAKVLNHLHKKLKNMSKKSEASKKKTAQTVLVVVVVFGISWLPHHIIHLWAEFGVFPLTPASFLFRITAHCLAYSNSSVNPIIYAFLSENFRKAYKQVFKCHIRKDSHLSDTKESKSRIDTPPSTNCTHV
Description: as §1, §2

Interleukine-6 = Interleukine-6 (Homo sapiens, UniProt P08887); experiment: Receptor binding Interleukine-6; details: radioligand [125I]-interleukine-6, read-out: Ki(nM) Compound 1
Description: as §1, §2

VIP1 = VIP1 (Homo sapiens, UniProt P32241); experiment: Receptor binding VIP1; details: radioligand [125I]-VIP, read-out: Ki(nM) Compound 1
Description: as §1, §2

For Nc1cc2cccc(N3CCNCC3)c2oc1=O [Compound 1, 3-amino-8-(1-piperazinyl)-2H-1-benzopyran-2-one], which ED50 (DBA/2 mice; ip, 0.5 h, read-out: ED50 Tonic extension, i.p. administration, 30 minutes after drug administration) is on record?
The ED50 was 0.66 mg/kg.

And the ED50 (DBA/2 mice; ip, 0.5 h, i.p. administration, 30 minutes after drug administration, read-out: ED50 Clonic seizures)?
The ED50 was 3.7 mg/kg.

And the ED50 (DBA/2 mice; ip, 0.5 h, i.p. administration, 30 minutes after drug administration, read-out: ED50 Wild running)?
Its ED50 is 39 mg/kg.

And the ED50 (DBA/2 mice; ip, 1 h, i.p. administration, 60 minutes after drug administration, read-out: ED50 Clonic seizures)?
Its ED50 is 1.9 mg/kg.

What about the ED50 (DBA/2 mice; ip, 1 h, i.p. administration, 60 minutes after drug administration, read-out: ED50 Tonic extension) of the same compound?
Its ED50 is 0.26 mg/kg.

And the ED50 (DBA/2 mice; ip, 1 h, i.p. administration, 60 minutes after drug administration, read-out: ED50 Wild running)?
Its ED50 is 20.5 mg/kg.

What about the ED50 (DBA/2 mice; po, 0.5 h, p.o. administration, 30 minutes after drug administration, read-out: ED50 Clonic seizures) of the same compound?
Its ED50 is 4.91 mg/kg.

What about the ED50 (DBA/2 mice; po, 0.5 h, read-out: ED50 Tonic extension, p.o. administration, 30 minutes after drug administration) of the same compound?
Its ED50 is 1.19 mg/kg.

And the ED50 (DBA/2 mice; po, 1 h, p.o. administration, 60 minutes after drug administration, read-out: ED50 Clonic seizures)?
Its ED50 is 1.34 mg/kg.

What about the ED50 (DBA/2 mice; po, 1 h, p.o. administration, 60 minutes after drug administration, read-out: ED50 Tonic extension) of the same compound?
Its ED50 is 0.27 mg/kg.

What about the behavioural changes (DBA/2 mice; i.p. administration) of the same compound?
Its behavioural changes is “At none of the dosages tested”.

And the behavioural changes (DBA/2 mice; oral administration)?
The behavioural changes was “At none of the dosages tested”.

What about the Ki (5-HT1A) of the same compound?
Its Ki is 0.25 nM.

And the Ki (5-HT3)?
The Ki was 250 nM.

And the Ki (5-HT6)?
Its Ki is > 1000 nM.

And the Ki (Dopamine-D5)?
Its Ki is > 1000 nM.

What about the Ki (Muscarine-M2) of the same compound?
The Ki was > 1000 nM.

And the Ki (nicotine)?
Its Ki is > 10000 nM.

And the Ki (μ-opiate)?
The Ki was > 1000 nM.

What about the Ki (Ca++-channel) of the same compound?
The Ki was > 1000 nM.

And the Ki (Adenosine-A2A)?
The Ki was > 1000 nM.

And the Ki (CCKB)?
The Ki was > 1000 nM.

And the Ki (Galanin-GAL1)?
The Ki was > 1000 nM.

What about the Ki (Interleukine-6) of the same compound?
The Ki was > 10000 nM.

And the Ki (VIP1)?
The Ki was > 1000 nM.
